Source: patent publication US20070259962A1, “Use of N-Arylhydrazine Derivatives for Combating Pests in and on Animals” (priority 2003, published 2007)

Assays:
Anopheles albimanus [1] = test: contact activity via water treatment, malaria mosquito larvae; details: malaria mosquito larvae (4th-instars), rate 1.0 ppm
Procedure: (§1) 2. Screening method to test contact activity against yellowfever mosquito, southern house mosquito, and malaria mosquito larvae via water treatment
(§2) Well plates were used as test arenas. The active ingredient was dissolved in acetone and diluted with water to obtain the concentrations needed. The final solutions containing appr. 1% acetone were placed into each well. Approximately 10 mosquito larvae (4th-instars) in 1 ml water were added to each well. Larvae were fed one drop of liver powder each day. The dishes were covered and maintained at 22° C. Mortality was recorded daily and dead larvae and live or dead pupae were removed daily. At the end of the test remaining live larvae were recorded and percent mortality was calculated.
(§3) Each test was replicated at least 3 times.

Aedes aegypti [2] = test: contact activity via water treatment, yellowfever mosquito larvae; details: yellowfever mosquito larvae (4th-instars), rate 10 ppm
Procedure: as §1, §2, §3

Culex quinquefasciatus [3] = test: contact activity via glass contact, house mosquito; details: rate 0.5 ppm
Procedure: (§4) 1. Screening method to test contact activity against stable fly, yellowfever mosquito, house mosquito, malaria mosquito, cat flea, and brown dog tick via glass contact
(§5) Glass vials (20 ml scintillation vials) were treated with 0.5 ml of a solution of active ingredient in acetone. Each vial was rolled uncapped for ca. 10 minutes to allow the a.i. to completely coat the vial and to allow for full drying of the acetone. Insects or ticks were placed into each vial.
as §3

Aedes aegypti [4] = test: contact activity via glass contact, yellowfever mosquito; details: rate 10 ppm
Procedure: as §4, §5, §3

Culex quinquefasciatus [5] = test: contact activity via water treatment, southern house mosquito larvae; details: house mosquito larvae (4th-instars), rate 10 ppm
Procedure: as §1, §2, §3

Ctenocephalides felis = test: contact activity via glass contact, cat flea; details: rate 100 ppm
Procedure: as §4, §5, §3

Anopheles albimanus [6] = test: contact activity via glass contact, malaria mosquito; details: rate 1 ppm
Procedure: as §4, §5, §3

Stomoxys calcitrans = test: contact activity via glass contact, stable fly; details: rate 10 ppm
Procedure: as §4, §5, §3

**Q.** With `CCN/C(=N\Nc1c(Cl)cc(C(F)(F)F)cc1Cl)C(C)(C)C` [I-1, N-ethyl-2,2-dimethylpropionamide-2-(2,6-dichloro-α,α,α-trifluoro-p-tolyl)-hydrazone] as the compound, how does the “Days or Hours to achieve 100% mortality” value (Anopheles albimanus [1]) read?
**A.** The value was 1 days.

**Q.** What about the “Days or Hours to achieve 100% mortality” value (Aedes aegypti [2]) of the same compound?
**A.** The value was 2 days.

**Q.** What about the “Days or Hours to achieve 100% mortality” value (Culex quinquefasciatus [3]) of the same compound?
**A.** Its value is 4 h.

**Q.** What about the “Days or Hours to achieve 100% mortality” value (Aedes aegypti [4]) of the same compound?
**A.** The value was 4 h.

**Q.** And the “Days or Hours to achieve 100% mortality” value (Culex quinquefasciatus [5])?
**A.** The value was 1 days.

**Q.** What about the “Days or Hours to achieve 100% mortality” value (Ctenocephalides felis) of the same compound?
**A.** The value was 2 days.

**Q.** What about the “Days or Hours to achieve 100% mortality” value (Anopheles albimanus [6]) of the same compound?
**A.** The value was 1 days.

**Q.** And the “Days or Hours to achieve 100% mortality” value (Stomoxys calcitrans)?
**A.** Its value is 4 h.

**Q.** What does the source list for `CCN/C(=N\Nc1c(Cl)cc(C(F)(F)F)cc1Cl)C1(C)CC1(Cl)Cl` (stereo not drawn) [1-2, N-Ethyl-2,2-dichloro-1-methylcyclopropane-carboxamide-2-(2,6-dichloro-α,α,α-trifluoro-p-tolyl)hydrazone]?
**A.** Days or Hours to achieve 100% mortality (Anopheles albimanus [1]): 1 days; Days or Hours to achieve 100% mortality (Aedes aegypti [2]): 2 days; Days or Hours to achieve 100% mortality (Culex quinquefasciatus [3]): 4 h; Days or Hours to achieve 100% mortality (Aedes aegypti [4]): 4 h; Days or Hours to achieve 100% mortality (Culex quinquefasciatus [5]): 1 days; Days or Hours to achieve 100% mortality (Ctenocephalides felis): 2 days; Days or Hours to achieve 100% mortality (Anopheles albimanus [6]): 1 days; Days or Hours to achieve 100% mortality (Stomoxys calcitrans): 4 h
